Measurements taken from US20250154169A1, “COMPOUNDS AND METHODS FOR MODULATING SPLICING” (REMIX THERAPEUTICS INC., priority 2021, published 2025).
Where two headings read alike, the source gives them in different places.

Legend:
Assay type in all cases: cell-based, human
SMN2 mRNA = experiment: Splicing RT-qPCR gene panel, SMN2 canonical junction (CJ) mRNA; settings: Tables 4A/4B, read-out: SMN2 (IC50, decrease in CJ mRNA, gene panel)
Procedure, shortened: (§1)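 A673/K562, 24 h cpd, 11-pt 3-fold from 10 uM, DMSO ≤0.25%. Lysis, direct RT-qPCR of CJ isoform, ≥duplicate. GAPDH/GUSB/PPIA norm, ΔΔCt vs DMSO → RQ → % response.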

HTT mRNA [1] = experiment: Splicing RT-qPCR assay, HTT canonical (CJ) and alternative (AJ) junction mRNA
Procedure, shortened: (§2)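 A673 or K562 cells were treated 24 h at 37 °C with an 11-point 3-fold compound dilution series (top 10 uM, DMSO ≤0.25%). Lysates went to one-step RT-qPCR measuring canonical (CJ) and alternative-exon (AJ) junction transcripts, normalized to GAPDH, GUSB or PPIA.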

HTT mRNA [2] = experiment: Splicing RT-qPCR gene panel, HTT canonical junction (CJ) mRNA; settings: Tables 4A/4B, read-out: HTT (IC50, decrease in CJ mRNA, gene panel)
Procedure, shortened: as §1

Target C mRNA = experiment: Splicing RT-qPCR gene panel, Target C canonical junction (CJ) mRNA; settings: Tables 4A/4B, read-out: Target C (IC50, decrease in CJ mRNA, gene panel)
Procedure, shortened: as §1

MYB mRNA = experiment: Splicing RT-qPCR assay, MYB canonical (CJ) and alternative (AJ) junction mRNA
Procedure, shortened: as §2

[3] = Homo sapiens, Tables 4A/4B, canonical junction qPCR panel, read-out: MYB (IC50, decrease in CJ mRNA, gene panel)
[4] = Homo sapiens, 24 h, A673 or K562 cells, 24 hours compound treatment, read-out: HTT CJ (IC50, decrease in canonical junction mRNA)
[5] = Homo sapiens, A673 or K562 cells, 24 hours compound treatment, read-out: HTT AJ (AC50, increase in alternative junction mRNA)
[6] = Homo sapiens, 24 h, A673 or K562 cells, 24 hours compound treatment, RT-qPCR, read-out: MYB AJ (AC50, increase in alternative junction mRNA)
[7] = Homo sapiens, 24 h, A673 or K562 cells, 24 hours compound treatment, RT-qPCR, read-out: MYB CJ (IC50, decrease in canonical junction mRNA)
[8] = Homo sapiens, Table 3B, alternative junction mRNA, read-out: HTT AJ (AC50, increase in AJ mRNA)
[9] = Homo sapiens, Table 3B, canonical junction mRNA, read-out: HTT CJ (IC50, decrease in CJ mRNA)
[10] = Homo sapiens, Table 3B, canonical junction mRNA, RT-qPCR, read-out: MYB CJ (IC50, decrease in CJ mRNA)
[11] = Homo sapiens, Table 3B, alternative junction mRNA, RT-qPCR, read-out: MYB AJ (AC50, increase in AJ mRNA)

Compound	IC50 (SMN2 mRNA; Homo sapiens)	IC50 (HTT mRNA [2]; Homo sapiens)	IC50 (Target C mRNA; Homo sapiens)	IC50 (MYB mRNA; [3])	IC50 (HTT mRNA [1]; [4])	IC50 (MYB mRNA; [7])	IC50 (HTT mRNA [1]; [9])	IC50 (MYB mRNA; [10])	AC50 (HTT mRNA [1]; [5])	AC50 (MYB mRNA; [6])	AC50 (HTT mRNA [1]; [8])	AC50 (MYB mRNA; [11])	other results
CCn1cc2c(N3CC[C@@H](NC)C3)ccc(C(=O)Nc3cc(F)c4nc(C)cn4c3)c2n1 [Compound 469, (R)-2-ethyl-N-(8-fluoro-2-methylimidazo[1,2-a]pyridin-6-yl)-4-(3-(methylamino)pyrrolidin-1-yl)-2H-indazole-7-carboxamide]	> 10000 nM	> 10000 nM	> 10000 nM	> 10000 nM									AC50 (HTT mRNA [1]; A673 or K562 cells, 24 hours compound treatment, read-out: HTT AJ (AC50, increase in alternative junction mRNA)): > 10000 nM; IC50 (HTT mRNA [1]; A673 or K562 cells, 24 hours compound treatment, read-out: HTT CJ (IC50, decrease in canonical junction mRNA)): > 10000 nM; AC50 (MYB mRNA; A673 or K562 cells, 24 hours compound treatment, RT-qPCR, read-out: MYB AJ (AC50, increase in alternative junction mRNA)): > 10000 nM; IC50 (MYB mRNA; A673 or K562 cells, 24 hours compound treatment, RT-qPCR, read-out: MYB CJ (IC50, decrease in canonical junction mRNA)): > 10000 nM
Cc1nnc2n1CC(NC(=O)c1ccc(N3CCNCC3)c3cn(C)nc13)CC2 (centres unmarked) [Compound 470, 2-methyl-N-{3-methyl-5H,6H,7H,8H-[1,2,4]triazolo[4,3-a]pyridin-6-yl}-4-(piperazin-1-yl) indazole-7-carboxamide]	> 10000 nM	> 10000 nM	> 10000 nM	> 10000 nM	> 10000 nM	> 10000 nM			> 10000 nM	> 10000 nM			
CCn1cc2c(N3CC[C@H](N(C)C)C3)cc(F)c(C(=O)Nc3cc(F)c4nc(C)cn4c3)c2n1 [Compound 472, 4-[(3S)-3-(dimethylamino)pyrrolidin-1-yl]-2-ethyl-6-fluoro-N-{8-fluoro-2-methylimidazo[1,2-a]pyridin-6-yl}indazole-7-carboxamide]	< 100 nM	> 10000 nM	> 10000 nM	< 100 nM	> 10000 nM	< 100 nM			1000 to 10000 nM	< 100 nM			
CCn1cc2c(N3CC[C@@H](N(C)C)C3)cc(F)c(C(=O)Nc3cc(F)c4nc(C)cn4c3)c2n1 [Compound 473, 4-[(3R)-3-(dimethylamino)pyrrolidin-1-yl]-2-ethyl-6-fluoro-N-{8-fluoro-2-methylimidazo[1,2-a]pyridin-6-yl}indazole-7-carboxamide; bis(trifluoroacetic acid)]	< 100 nM	1000 to 10000 nM	> 10000 nM	< 100 nM	1000 to 10000 nM	< 100 nM			1000 to 10000 nM	< 100 nM			
CCn1cc2c(N3CCNCC3)cc(F)c(C(=O)Nc3cc(F)c4nc(C)cn4c3)c2n1 [Compound 474, 2-ethyl-6-fluoro-N-{8-fluoro-2-methylimidazo[1,2-a]pyridin-6-yl}-4-(piperazin-1-yl) indazole-7-carboxamide]	< 100 nM	100 to 1000 nM	1000 to 10000 nM	< 100 nM	< 100 nM	< 100 nM			100 to 1000 nM	< 100 nM			
CCn1cc2c(N3C[C@@H](C)N[C@@H](C)C3)cc(F)c(C(=O)Nc3cc(F)c4nc(C)cn4c3)c2n1 [Compound 475, 4-[(3R,5S)-3,5-dimethylpiperazin-1-yl]-2-ethyl-6-fluoro-N-{8-fluoro-2-methylimidazo[1,2-a]pyridin-6-yl}indazole-7-carboxamide; trifluoroacetic acid]	< 100 nM	100 to 1000 nM	1000 to 10000 nM	< 100 nM	100 to 1000 nM	< 100 nM			100 to 1000 nM	< 100 nM			
CCn1cc2c(NC3CCNCC3)ccc(C(=O)Nc3cc(F)c4nc(C)cn4c3)c2n1 [Compound 476, 2-ethyl-N-{8-fluoro-2-methylimidazo[1,2-a]pyridin-6-yl}-4-(piperidin-4-ylamino) indazole-7-carboxamide]	100 to 1000 nM	100 to 1000 nM	1000 to 10000 nM	1000 to 10000 nM	100 to 1000 nM	1000 to 10000 nM			1000 to 10000 nM	1000 to 10000 nM			
CCn1cc2c(N3CC4(CNC4)C3)ccc(C(=O)Nc3cc(F)c4nc(C)cn4c3)c2n1 [Compound 477, 4-{2,6-diazaspiro[3.3]heptan-2-yl}-2-ethyl-N-{8-fluoro-2-methylimidazo[1,2-a]pyridin-6-yl}indazole-7-carboxamide]	100 to 1000 nM	1000 to 10000 nM	> 10000 nM	100 to 1000 nM	1000 to 10000 nM	100 to 1000 nM			> 10000 nM	100 to 1000 nM			
CCc1cc2c(N3CCNCC3)ccc(C(=O)Nc3cc(F)c4nc(C)cn4c3)n2n1 [Compound 916]													IC50 (SMN2 mRNA): < 100 nM; AC50 (HTT mRNA [1]; Table 3B, alternative junction mRNA, read-out: HTT AJ (AC50, increase in AJ mRNA)): 100 to 1000 nM; IC50 (HTT mRNA [1]; Table 3B, canonical junction mRNA, read-out: HTT CJ (IC50, decrease in CJ mRNA)): 100 to 1000 nM; IC50 (HTT mRNA [2]): 100 to 1000 nM; IC50 (Target C mRNA): 100 to 1000 nM; AC50 (MYB mRNA; Table 3B, alternative junction mRNA, RT-qPCR, read-out: MYB AJ (AC50, increase in AJ mRNA)): < 100 nM; IC50 (MYB mRNA; Table 3B, canonical junction mRNA, RT-qPCR, read-out: MYB CJ (IC50, decrease in CJ mRNA)): < 100 nM; IC50 (MYB mRNA; Tables 4A/4B, canonical junction qPCR panel, read-out: MYB (IC50, decrease in CJ mRNA, gene panel)): < 100 nM

Second part, led by results:

IC50 (SMN2 mRNA; Homo sapiens)	IC50 (HTT mRNA [2]; Homo sapiens)	IC50 (Target C mRNA; Homo sapiens)	IC50 (MYB mRNA; [3])	IC50 (HTT mRNA [1]; [4])	IC50 (MYB mRNA; [7])	IC50 (HTT mRNA [1]; [9])	IC50 (MYB mRNA; [10])	Compound	AC50 (HTT mRNA [1]; [5])	AC50 (MYB mRNA; [6])	AC50 (HTT mRNA [1]; [8])	AC50 (MYB mRNA; [11])	other results
< 100 nM	100 to 1000 nM	1000 to 10000 nM	< 100 nM			100 to 1000 nM	< 100 nM	Cc1cn2cc(NC(=O)c3ccc(N4CCNCC4)n4cc(C)nc34)cc(F)c2n1 [Compound 908]			100 to 1000 nM	< 100 nM	
100 to 1000 nM	> 10000 nM	> 10000 nM	1000 to 10000 nM			> 10000 nM	1000 to 10000 nM	Cc1cn2cc(NC(=O)c3ncc(N4CCNCC4)c4cn(C)nc34)cc(F)c2n1 [Compound 932]			> 10000 nM	1000 to 10000 nM	
< 100 nM	< 100 nM	100 to 1000 nM	< 100 nM			< 100 nM	< 100 nM	Cc1cn2cc(NC(=O)c3ccc(N4CCNCC4)c4cc(C)nn34)cc(F)c2n1 [Compound 940]			100 to 1000 nM	< 100 nM	
< 100 nM	100 to 1000 nM	1000 to 10000 nM	< 100 nM			100 to 1000 nM	< 100 nM	Cc1cn2cc(NC(=O)c3ccc(N4CCNCC4)c4csnc34)cc(F)c2n1 [Compound 941]			100 to 1000 nM	< 100 nM	
< 100 nM	100 to 1000 nM	1000 to 10000 nM	100 to 1000 nM			100 to 1000 nM	100 to 1000 nM	CCNC1CCN(c2ccc(C(=O)Nc3cc(F)c4nc(C)cn4c3)c3nc(CC)cn23)C1 (centres unmarked) [Compound 942]			1000 to 10000 nM	100 to 1000 nM	
< 100 nM	100 to 1000 nM	1000 to 10000 nM	< 100 nM			100 to 1000 nM	< 100 nM	CCc1cn2c(N3CCNCC3)ccc(C(=O)Nc3cc(F)c4nc(C)cn4c3)c2n1 [Compound 943]			1000 to 10000 nM	< 100 nM	
< 100 nM	1000 to 10000 nM	1000 to 10000 nM	100 to 1000 nM			1000 to 10000 nM	100 to 1000 nM	CCNC1CCN(c2ccc(C(=O)Nc3cc(F)c4nc(C)cn4c3)c3nc(CC)sc23)C1 (centres unmarked) [Compound 944]			1000 to 10000 nM	100 to 1000 nM	
< 100 nM	1000 to 10000 nM	1000 to 10000 nM	< 100 nM			1000 to 10000 nM	< 100 nM	CCc1nc2c(C(=O)Nc3cc(F)c4nc(C)cn4c3)ccc(N3CCNCC3)c2s1 [Compound 945]			1000 to 10000 nM	< 100 nM	
< 100 nM	< 100 nM	100 to 1000 nM	< 100 nM			< 100 nM	< 100 nM	Cc1cn2cc(NC(=O)c3ccc(N4CCNCC4)c4nc(C)nn34)cc(F)c2n1 [Compound 946]			100 to 1000 nM	< 100 nM	
< 100 nM	< 100 nM	< 100 nM	< 100 nM			< 100 nM	< 100 nM	COc1c(NC(=O)c2ccc(N3CCNCC3)c3nc(C)nn23)cn2cc(C)nc2c1F [Compound 949]			< 100 nM	< 100 nM	
